Data from patent US20050008896A1, “Luminous organic compound and manufacturing method” (Orient Chemical Ind., Ltd., priority 2003, published 2005).
Read-outs that look alike come from different tables or passages of the source.

Assays:
[1] = Fluorescence (photoluminescence) intensity in ethanol, fluorescence spectrophotometer RF-5300PC; assay type: physicochemical; conditions: for Fluorescence Intensity / center of Luminous Wave: 25 mg of compound in 100 ml of ethanol; for Relative Value of Fluorescence Intensity, Relative Value (2) (Related to Metal Complex Intermediate 3): metal complex intermediate 3 regarded as 1.00
Experimental: Fluorescence intensity of each obtained compound was measured in order to evaluate fluorescence property.
A method of the evaluation is as follows. 25 mg of each compound was dissolved in 100 ml of ethanol respectively. The fluorescence intensity, photoluminescence intensity, was measured by a fluorescence spectrophotometer RF-5300PC that is available from Shimadzu Corporation. The measured results of the luminous organic compounds 1 to 9 and 11, the comparative compounds 1 to 3 and the metal complex intermediate 1 to 3 are indicated in Table 3. […] The relative value (2) of the fluorescence intensity indicates the value related to the fluorescence intensity of the metal complex intermediate 3 regarded as 1.00.

[2] = stood at room temperature overnight
Experimental: A method of measurement of the solubility is as follows. After the prescribed amount of the compound was added to each solvent, it was heated by water bath and irradiated supersonic wave for 1 hour. It was stood at room temperature overnight, and filtrated. Obtained residue was dried. Amount of insoluble residue was weighed, and solubility (w/v %) was determined.

Row | SMILES | Relative Value of Fluorescence Intensity, Relative Value (1) (Related to Comparative Compound 3) [1] | Fluorescence Intensity [1] | center of Luminous Wave [1] | Relative Value of Fluorescence Intensity, Relative Value (2) (Related to Metal Complex Intermediate 3) [1] | Solubility, Ethanol [2] [w/v %] | Solubility, Ethyl Acetate [2] | Solubility, Methyl Ethyl Ketone [2] | Solubility, Toluene [2] [w/v %] | Solubility, Xylene [2] [w/v %] | Relative Value of Fluorescence Intensity, Relative Value (1) (Related to Comparative Compound 3) ([1]; comparative compound 3 regarded as 1.00)
1 | CCCC[N+](C)(C)CCCC[N+](C)(C)CCCC.O=C(C=C([O-])C(F)(F)F)c1ccc2ccccc2c1.O=C(C=C([O-])C(F)(F)F)c1ccc2ccccc2c1.O=C(C=C([O-])C(F)(F)F)c1ccc2ccccc2c1.O=C(C=C([O-])C(F)(F)F)c1ccc2ccccc2c1.O=C(C=C([O-])C(F)(F)F)c1ccc2ccccc2c1.O=C(C=C([O-])C(F)(F)F)c1ccc2ccccc2c1.O=C(C=C([O-])C(F)(F)F)c1ccc2ccccc2c1.O=C(C=C([O-])C(F)(F)F)c1ccc2ccccc2c1.[Eu+3].[Eu+3] [Luminous Organic Compound 6] | 1.51 | 758 | (613 nm) | 1.53 | 0.14 | over 10.0 w/v % | over 10.0 w/v % | 3.86 | 3.22 | 
2 | C[N+](C)(C)c1ccc(C(c2ccc([N+](C)(C)C)cc2)c2ccc([N+](C)(C)C)cc2)cc1.O=C(C=C([O-])C(F)(F)F)c1ccc2ccccc2c1.O=C(C=C([O-])C(F)(F)F)c1ccc2ccccc2c1.O=C(C=C([O-])C(F)(F)F)c1ccc2ccccc2c1.O=C(C=C([O-])C(F)(F)F)c1ccc2ccccc2c1.O=C(C=C([O-])C(F)(F)F)c1ccc2ccccc2c1.O=C(C=C([O-])C(F)(F)F)c1ccc2ccccc2c1.O=C(C=C([O-])C(F)(F)F)c1ccc2ccccc2c1.O=C(C=C([O-])C(F)(F)F)c1ccc2ccccc2c1.O=C(C=C([O-])C(F)(F)F)c1ccc2ccccc2c1.O=C(C=C([O-])C(F)(F)F)c1ccc2ccccc2c1.O=C(C=C([O-])C(F)(F)F)c1ccc2ccccc2c1.O=C(C=C([O-])C(F)(F)F)c1ccc2ccccc2c1.[Eu+3].[Eu+3].[Eu+3] [Luminous Organic Compound 7] |  | 835 | (613 nm) | 1.69 | 0.16 | 10.0 w/v % | over 10.0 w/v % | 0.14 | 0.16 | 1.66
3 | C[N+](C)(C)CCCC[N+](C)(C)C.O=C(C=C([O-])C(F)(F)F)c1cccs1.O=C(C=C([O-])C(F)(F)F)c1cccs1.O=C(C=C([O-])C(F)(F)F)c1cccs1.O=C(C=C([O-])C(F)(F)F)c1cccs1.O=C(C=C([O-])C(F)(F)F)c1cccs1.O=C(C=C([O-])C(F)(F)F)c1cccs1.O=C(C=C([O-])C(F)(F)F)c1cccs1.O=C(C=C([O-])C(F)(F)F)c1cccs1.[Eu+3].[Eu+3] [Luminous Organic Compound 8] | 1.02 | 510 | (613 nm) | 1.03 | 0.15 | 0.88 w/v % | over 10.0 w/v % | 0.18 | 0.10 | 
4 | C[N+](C)(C)CCCC[N+](C)(C)C.O=C(C=C([O-])C(F)(F)F)c1ccccc1.O=C(C=C([O-])C(F)(F)F)c1ccccc1.O=C(C=C([O-])C(F)(F)F)c1ccccc1.O=C(C=C([O-])C(F)(F)F)c1ccccc1.O=C(C=C([O-])C(F)(F)F)c1ccccc1.O=C(C=C([O-])C(F)(F)F)c1ccccc1.O=C(C=C([O-])C(F)(F)F)c1ccccc1.O=C(C=C([O-])C(F)(F)F)c1ccccc1.[Eu+3].[Eu+3] [Luminous Organic Compound 9] | 1.00 | 502 | (612 nm) | 1.02 | 0.11 | 3.55 w/v % | over 10.0 w/v % | 0.30 | 0.12 | 
5 | C[N+](C)(C)CCCC[N+](C)(C)C.O=C(C=C([O-])C(F)(F)F)c1ccc2ccccc2c1.O=C(C=C([O-])C(F)(F)F)c1ccc2ccccc2c1.O=C(C=C([O-])C(F)(F)F)c1ccc2ccccc2c1.O=C(C=C([O-])C(F)(F)F)c1ccc2ccccc2c1.O=C(C=C([O-])C(F)(F)F)c1ccc2ccccc2c1.O=C(C=C([O-])C(F)(F)F)c1ccc2ccccc2c1.O=C(C=C([O-])C(F)(F)F)c1ccc2ccccc2c1.O=C(C=C([O-])C(F)(F)F)c1ccc2ccccc2c1.[Al+3].[Al+3] [Luminous Organic Compound 11] | 0.52 | 262 | (455 nm) | 0.53 | 0.21 | 1.60 w/v % | over 10.0 w/v % | 0.25 | 0.10 | 
